Assay results taken from patent publication US7022732B2, “Propanolamine derivative having 1, 4-benzodioxane ring” (Nisshin Pharma Inc., priority 2001, dated 2006).

Target: T1, human β3 adrenergic receptor (Homo sapiens, UniProt P13945)
T1 construct: expressed in transfected cells; host or cells: CHO cells (clone G4-I, kept under Geneticin selection)
Assay: cAMP production in G4-I cells, stimulating activity of human β3 adrenergic receptor (cAMP EIA)
Format: cell-based
Conditions: cAMP production relative to isoproterenol maximum, CHO cells (G4-I) expressing human β3 receptor
Procedure: Representative compounds of the invention were assayed for their stimulating activity of human β3 adrenergic receptor. In the tests, there was used G4-I cloned with CHO cells expressing human β3 adrenergic receptor genes. A cAMP EIA kit for use was available from Amersham Farmacia.
G4-I was incubated under the atmosphere of 5% CO2 at 37° C. in a Han's F12 Nutrient Mixture medium containing 10% fetal calf serum, penicillin 100 U/mL, streptomycin 100 μg/mL, amphotericin B 25 μg/mL and Geneticin 400 μg/mL. When the reaction for cAMP production was carried out, frozen cells stocked were incubated for 3 days and then treated with trypsin to prepare a cell suspension. The cell suspension was diluted to 2×10^5 cells/mL with the medium. Then 1 ml each of the diluted suspension was dispensed into a 12-well plate dish.
The cells cultured for 24 hours were used to carry out the cAMP production reaction.
The culture medium was removed from the cells incubated on the 12-well plate dish. The cells were washed twice with 1 mL of Wash Buffer previously warmed to 37° C. and then 0.9 mL of Reaction Buffer was added. Cultivation was carried out on a water bath at 37° C. for 5 minutes and then 0.1 mL of an aqueous solution of the test compound or isoproterenol was added thereto. Reaction was further allowed to take place at 37° C. for 30 minutes. The reaction solution was taken out and then washed twice with 2 mL of D-PBS(-) followed by addition of 1 mL of the Extraction Buffer. The extraction procedure was performed using a plate mixer at 4° C. for 1 hour. The extract was stored at −20° C.
The cell extract frozen at −20° C. was thawed at 4° C. The cAMP of the extract in each well was assayed by means of a cAMP-EIA kit manufactured by Amersham Farmacia. Assay was performed in accordance with the manual attached to the kit. Adsorbance in a 96-well plate was determined using a microplate reader (Model Spectra MAX 250) manufactured by Molecular Device.
The protein amount of the above cell extract was assayed according to the dye-binding method using a CBB solution for quantitative determination of protein (available from Bio-Rad). Bovine serum albumin was used as a protein standard, and absorbance was determined using the above microplate reader (Model Spectra MAX 250) manufactured by Molecular Device.
Determination of cAMP and protein amounts was carried out in duplicate and mean values were adopted as measured values. The cAMP production amount of each sample was represented in terms of a numerical value of the cAMP amount (pmol) divided by cell protein amount (mg) (pmol/mg protein). […] For each sample, cAMP production amount was calculated and a relative cAMP production amount to the maximum cAMP production amount of isoproterenol (% of isoproterenol Max) was determined.

T1 sequence (P13945 whole entry): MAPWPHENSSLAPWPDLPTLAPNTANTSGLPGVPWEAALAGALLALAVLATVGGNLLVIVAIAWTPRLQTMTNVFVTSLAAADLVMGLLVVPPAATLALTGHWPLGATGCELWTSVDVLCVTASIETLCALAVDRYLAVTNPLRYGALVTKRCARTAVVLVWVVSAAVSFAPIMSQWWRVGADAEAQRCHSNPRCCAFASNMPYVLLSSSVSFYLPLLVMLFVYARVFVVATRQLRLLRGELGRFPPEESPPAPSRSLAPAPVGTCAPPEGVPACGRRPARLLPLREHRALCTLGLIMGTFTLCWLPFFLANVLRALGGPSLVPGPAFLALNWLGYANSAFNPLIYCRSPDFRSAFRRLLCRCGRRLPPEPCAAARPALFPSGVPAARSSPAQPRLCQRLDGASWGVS

SMILES	Intrinsic Activity (% of ISP) (test compound 1 μM)	Intrinsic Activity (% of ISP) (test compound 10 μM)
C[C@H](Cc1ccc2c(c1)OC[C@H](C(=O)O)O2)NC[C@H](O)COc1ccc(O)c(NS(C)(=O)=O)c1 [Example 2, 6-[2-(R)-[2-(S)-Hydroxy-3-(4-hydroxy-3-methanesulfonamidophenoxy)propylamino]propyl]-2,3-dihydro-1,4-benzodioxine-2-(R)-carboxylic acid]	76 % of ISP	
CS(=O)(=O)Nc1cc(OC[C@@H](O)CNCCc2ccc3c(c2)OC[C@H](C(=O)O)O3)ccc1O [Example 4, 6-[2-[2-(S)-Hydroxy-3-(4-hydroxy-3-methanesulfonamido-phenoxy]propylamino]ethyl]-2,3-dihydro-1,4-benzodioxine-2-(R)-carboxylic acid]	98 % of ISP	
C[C@H](Cc1ccc2c(c1)OC[C@H](C(=O)O)O2)NC[C@H](O)COc1ccc(O)cc1 [Example 12, 6-[2-(R)-[2-(S)-Hydroxy-3-(4-hydroxyphenoxy)propylamino]-propyl]-2,3-dihydro-1,4-benzodioxine-2-(R)-carboxylic acid]		73 % of ISP
COc1cc(O)ccc1OC[C@@H](O)CN[C@H](C)Cc1ccc2c(c1)OC[C@H](C(=O)O)O2 [Example 16, 6-[2-(R)-[2-(S)-Hydroxy-3-(4-hydroxy-2-methoxyphenoxy)-propylamino]propyl]-2,3-dihydro-1,4-benzodioxine-2-(R)-carboxylic acid]	61 % of ISP	
